The text below walks through data of US7659277B2, “Ubiquitin ligase inhibitors and methods related thereto” (Proteologies, Ltd., priority 2003, dated 2010).

The target of one assay is Hmdm2 (Homo sapiens, UniProt Q00987). Description: Selectivity (% A in 1 μM), ubiquitin ligase activity of Hmdm2. Format: biochemical. The conditions noted are these: read-out: Selectivity (% A* in 1 μM) Hmdm2.
The next assay concerns the target T1, POSH (Homo sapiens, UniProt Q7Z6J0).
T1 construct: GST-POSH lot NB81/p.118 3.6 mg/ml; fused on or other part: GST tag, used for detection with anti-GST XL665
T1 sequence (Q7Z6J0 1-269 limits assumed): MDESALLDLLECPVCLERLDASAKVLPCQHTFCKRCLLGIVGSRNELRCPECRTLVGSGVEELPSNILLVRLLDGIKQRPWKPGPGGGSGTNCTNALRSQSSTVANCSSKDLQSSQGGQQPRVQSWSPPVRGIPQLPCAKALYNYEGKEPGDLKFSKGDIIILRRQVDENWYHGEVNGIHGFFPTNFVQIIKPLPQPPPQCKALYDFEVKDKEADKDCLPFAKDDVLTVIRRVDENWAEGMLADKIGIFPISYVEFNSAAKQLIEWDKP
The assay can be described thus: Selectivity (% A in 1 μM), ubiquitin ligase activity of POSH. Type of assay: biochemical. The conditions noted are these: read-out: Selectivity (% A* in 1 μM) POSH. Here is the method: Experimental Protocols: 1. HTS Screening Assay Procedure • Microplates 10109D to 10114D compounds at 1 mM. • (Controls in column 1). • All compounds were perchase from ChemBridge corporation: ChemBridge corporation 16981 Via Tazon, Suite G San Diego, Calif. 92127 a. Microplates Labeling • Put labels to 6 PS U-bottom clear microplate. • Put labels to 18 black microplates (triplicats). b. Microplates Preparation • Put 100 μl GST-POSH at 33 nM in wells of the clear PS U-bottom microplates (exept wells A1-D1). • Negative control: place 100 μl dH2O in wells A1-D1. • (Positive control: place 100 μl GST-POSH at 33 nM in wells E1-H1). • Put 8 μl enzymes solution ×4 to black microplates (column 1 to 11). c. Incubation of E3 with Compounds • Transfer 5 μl of compounds (at 1 mM) to the microplates containing 100 μl GST-POSH. • Add 5 μl of DMSO to controls column 1. • Incubation 30 minutes at RT. d. […] 2. […] Microplates Labeling • Put labels to 4 clear PP clear microplate (18.2 μM, 9.1 uM, 1.82 uM, 910 nM,). • Put labels to 5 clear PS U-bottom clear microplate 4.44 μM, 909, 444, 91 and 44 nM) • Put labels to 15 black microplates (triplicates). f. Original Microplate Dilutions • Put DMSO 40 μl to (18.2 μM, 1.82 uM plates) and 20 ul to (9.1 uM, 910 nM plates. • Mix by pipetation the original microplate (3× up and down 45 μl). • Transfer 10 μl of compounds from the original microplate (at 91 μM) to the next microplate (=18.2 μM) on splitting apparatus. • Mix by pipetation the 18.2 uM microplate (3× up and down 45 μl). • Transfer 20 μl of compounds from the 18.2 uM microplate to the next microplate (=9.1 μM) on splitting apparatus. • Mix by pipetation the 9.1 uM microplate (3× up and down 45 μl). • Transfer 10 μl of compounds from the 9.1 uM microplate to the next microplate (=1.82 μM) on splitting apparatus. • Mix by pipetation the 1.82 uM microplate (3× up and down 45 μl). • Transfer 20 μl of compounds from the 1.82 uM microplate to the next microplate (=910 nM) on splitting apparatus • Mix by pipetation. g. Microplates Preparation • Put 123 μl GST-POSH at 33 nM in wells of the 5 clear PS U-bottom clear microplates. • Positive control: place 123 μl GST-POSH at 33 nM in well A12-h12 13 μl DMSO. • Negative control: place 123 μl dH2O in well B1 and 13 μl DMSO. • Put 8 μl enzymes solution ×4 to 15 black microplates. • Controls: put 8 μl enzymes solution ×4 to wells A1 to F1. h. Incubation of POSH with Compounds • Take 7 μl of compounds at original plate (91 μM) and put into the 4.44 μM labeled microplate containing 123 μl GST-POSH, on splitting apparatus. • Mix by pipetation (3× up and down 115 μl), note time. • Take 7 μl of compounds at 18.2 μM and put into the 910 nM labeled microplate containing 123 μl GST-POSH, on splitting apparatus. • Mix by pipetation (3× up and down 115 μl), note time. • Take 7 μl of compounds at 9.1 μM and put into the 444 nM labeled microplate containing 123 μl GST-POSH, on splitting apparatus. • Mix by pipetation (3× up and down 115 μl), note time. • Take 7 μl of compounds at […] and put into the 91 nM labeled microplate containing 123 μl GST-POSH, on splitting apparatus. • Mix by pipetation (3× up and down 115 μl), note time. • Take 7 μl of compounds at 91.0 nM and put into the 44 nM labeled microplate containing 123 μl GST-POSH, on splitting apparatus. • Mix by pipetation (3× up and down 115 μl), note time. • Incubation 30 minutes at RT. i.

Where [1] appears, read: % activity at 1 μM compound, control is related to 100% activity, HTS protocol.

Read-outs that look alike come from different tables or passages of the source.

Chain of Hmdm2 (Q00987 whole entry): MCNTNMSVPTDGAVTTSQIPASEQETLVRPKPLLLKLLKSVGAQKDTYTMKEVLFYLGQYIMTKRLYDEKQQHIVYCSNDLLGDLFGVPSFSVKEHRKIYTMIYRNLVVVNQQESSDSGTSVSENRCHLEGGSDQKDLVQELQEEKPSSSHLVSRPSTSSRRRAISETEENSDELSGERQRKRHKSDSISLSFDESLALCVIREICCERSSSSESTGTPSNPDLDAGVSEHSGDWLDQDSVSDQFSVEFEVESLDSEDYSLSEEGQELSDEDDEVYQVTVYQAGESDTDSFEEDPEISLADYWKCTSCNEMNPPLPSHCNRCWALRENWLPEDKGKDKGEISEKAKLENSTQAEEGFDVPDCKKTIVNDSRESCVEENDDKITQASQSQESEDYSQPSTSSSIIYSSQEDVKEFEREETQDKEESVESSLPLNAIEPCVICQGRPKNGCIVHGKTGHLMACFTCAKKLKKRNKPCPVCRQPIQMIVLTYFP

As to `O=C1C=CC(=O)N1c1ccc(Cl)cc1` [Compound 19], the remaining activity at 1 µM turned out to be 100% on Hmdm2 and 39% on POSH.
Turning to `Oc1ccc2ccccc2c1/C=N/c1ncc(Br)cc1Br` [Compound 66], the remaining activity at 1 µM at Hmdm2 (setting [1]) was 120%; on POSH (setting [1]), 53%.
For `Cc1c(C(=O)/C=C/c2ccccc2)c2cc(O)ccc2n1C` [Compound 75], the remaining activity at 1 µM at Hmdm2 was 113%; on POSH, 103%.
For `O=c1/c(=C/c2ccc(N3CCOCC3)cc2)sc2nc3ccccc3n12` [Compound 32], in that order: 141% and 66%.
In the case of `Cc1c(C(=O)/C=C/c2cccs2)c2cc(O)ccc2n1C` [Compound 76], the remaining activity at 1 µM at Hmdm2 worked out at 110%; at POSH it was 35%.
As to `Cc1ccc2nsnc2c1/N=C/c1c(O)ccc2ccccc12` [Compound 53], the remaining activity at 1 µM at Hmdm2 came out at 125%; at POSH it was 12%.
Take `COc1cc(C=C2C(=O)N(C)C(=S)N(C)C2=O)ccc1O` [Compound 9]: the remaining activity at 1 µM at Hmdm2 (setting [1]) is 103%; at POSH (setting [1]) it was 91%.
Taken in the same sequence, the figures for `COc1ccc(CNc2cccc(N(C)C)c2)cc1` [Compound 106] were 80% and 27%.
For `O=c1nc(-c2ccc(Br)cc2)cc(-c2ccc([N+](=O)[O-])cc2)[nH]1` [Compound 84], the remaining activity at 1 µM on Hmdm2 stood at 102%; at POSH it was 67%.
Taken in the same sequence, the figures for `CN1C(=O)/C(=C\c2ccc(-c3cccc([N+](=O)[O-])c3)o2)SC1=S` [Compound 115] were 108% and 8%.
As for `Oc1c(Br)cc(Br)cc1/C=N/c1nc2ccccc2s1` [Compound 62], the figures for the remaining activity at 1 µM at Hmdm2 (setting [1]) and at POSH (setting [1]) were 120% and 37%, respectively.
Turning to `O=C1C=CC(=O)N1c1ccc(OC(F)(F)C(F)F)c(N2C(=O)C=CC2=O)c1` [Compound 20], the remaining activity at 1 µM at Hmdm2 was found to be 132%; at POSH it was 33%.
For `O=[N+]([O-])c1ccc(CN2CCN(c3cccc(Cl)c3)CC2)o1` [Compound 80], in that order: 95% and 50%.
Take `COc1ccc(/C=C/C(=O)C2C(=O)CCC2=O)cc1OC` [Compound 113]: the remaining activity at 1 µM at Hmdm2 (setting [1]) was determined as 101%; at POSH (setting [1]), 74%.
For the molecule `OCc1cccc(/N=C/c2cccc(O)c2O)c1` [Compound 57], the remaining activity at 1 µM at Hmdm2 is 80%; on POSH, 20%.
For `Cc1ccc(/N=C/c2cc(Br)cc(Br)c2O)c(C)c1` [Compound 54], the remaining activity at 1 µM on Hmdm2 is 124%; on POSH, 30%.
`O=[N+]([O-])c1ccc(-c2ccc(/N=C/c3c(O)ccc4ccccc34)cc2)cc1` [Compound 60]: the figures for the remaining activity at 1 µM at Hmdm2 (setting [1]) and at POSH (setting [1]) were 90% and 22%, respectively.
For `Cc1cc(I)ccc1NCn1nnc2ccccc21` [Compound 105], in that order: 102% and 28%.
For `O=c1oc2cc(O)ccc2cc1-c1csc(-c2ccc(Cl)cc2)n1` [Compound 40], in that order: 159% and 24%.
As to `CN(C)c1ccc(/C=C2\SC(=S)N(C3CCS(=O)(=O)C3)C2=O)cc1` (stereo not shown) [Compound 110], the results for the remaining activity at 1 µM on Hmdm2 and on POSH were 51% and 94%, respectively.
Consider `COc1ccccc1N1C(=O)NC(=O)/C(=C\C=C\c2ccccc2)C1=O` [Compound 10], for which the remaining activity at 1 µM at Hmdm2 (setting [1]) was determined as 116%; at POSH (setting [1]), 15%.
`N=C1NC(=O)/C(=C\c2ccc(-c3ccc(I)cc3)o2)S1` [Compound 29]: the remaining activity at 1 µM at Hmdm2 was 104%; on POSH it was 42%.
Regarding `Oc1c(Br)cc(Br)cc1/C=N/c1cccc2nsnc12` [Compound 112], the results for the remaining activity at 1 µM on Hmdm2 (setting [1]) and at POSH (setting [1]) were 113% and 27%, respectively.
Taken in the same sequence, the figures for `O=c1/c(=C/c2cccc([N+](=O)[O-])c2O)sc2nc3ccccc3n12` [Compound 51] were 80% and 51%.
Taken in the same sequence, the figures for `Oc1c(Cl)cc(Cl)cc1/C=N/c1ccc(-c2nc3ccccc3[nH]2)cc1` [Compound 63] were 102% and 30%.
For `Cc1ccc(/C=N/c2ccc(Cl)cc2)o1` [Compound 74], in that order: 107% and 17%.
For the molecule `CCCCOc1ccc(NC(=S)N2CCn3c4c(c(=O)c5cc(C)ccc53)CCC42)cc1` (stereo not shown) [Compound 81], the remaining activity at 1 µM at Hmdm2 turned out to be 73%; at POSH, 3%.
Regarding `O=[N+]([O-])c1ccc2c(c1)Cc1cc(/N=C/c3ccc(Br)cc3)ccc1-2` [Compound 67], the remaining activity at 1 µM was determined as 104% on Hmdm2 (setting [1]) and 103% on POSH (setting [1]).
On to `O=C1C=CC(=O)N1c1cc(Cl)cc(Cl)c1` [Compound 23], for which the remaining activity at 1 µM on Hmdm2 (setting [1]) turned out to be 107%; on POSH (setting [1]), 9%.
With `CC(=O)Nc1ccc(-c2cc3ccccn3c2)cc1` [Compound 78], the results for the remaining activity at 1 µM on Hmdm2 (setting [1]) and at POSH (setting [1]) were 93% and 22%, respectively.
Taken in the same sequence, the figures for `Cc1cc(/N=C/c2c(O)ccc3ccccc23)no1` [Compound 111] were 72% and 17%.
For `C=CCN1C(=O)NC(=O)/C(=C/c2ccc(F)cc2)C1=O` [Compound 12], in that order: 99% and 54%.
Taken in the same sequence, the figures for `O=C1NC(=O)/C(=C\c2ccc(-c3ccc(F)cc3)o2)S1` [Compound 108] were 108% and 42%.
Take `Cc1ccc(/N=C/c2cccc(O)c2O)cc1C` [Compound 56]: the remaining activity at 1 µM at Hmdm2 amounted to 73%; at POSH, 27%.
For the molecule `COc1cc(/C=C2\SC(=O)NC2=O)ccc1OCc1ccc(Cl)cc1Cl` [Compound 34], the remaining activity at 1 µM at Hmdm2 (setting [1]) is 123%; at POSH (setting [1]) it was 23%.
As for `CN(C)c1ccc(/C=C2\C(=O)N(c3ccc([N+](=O)[O-])cc3)N=C2N2CCOCC2)cc1` [Compound 42], the remaining activity at 1 µM on Hmdm2 was 111%; at POSH, 138%.
With `O=C1S/C(=C/c2ccc(-c3ccc([N+](=O)[O-])cc3Cl)o2)C(=O)N1c1ccccc1` [Compound 27], the remaining activity at 1 µM at POSH came to 6%.
